The conditions of series [1]: sodium salt of stereoisomer, 5% sucrose solution as control, optical purity 99% or more, cited from earlier work.
For series [2] the following is noted: cited from earlier work; for intensity of sweet taste: Nakamura et al., hydrochloride salts.
A short description of series [3]: Hygroscopic property test (25° C., humidity 95%). Type of series: physicochemical. As to conditions: for water absorption: high humidity condition; for Increase percentage (absorbed water amount) / Weight: 25° C., humidity 95%; for absorbed water: after 24 hours, 95% high humidity condition. As to the method: The crystals of free (2R,4R)-monatin (sample 1) prepared in Comparative Example 1, crystal of the potassium salt of (2R,4R)-monatin monohydrate (sample 2), and an amorphous solid of the potassium salt of (2R,4R)-monatin (sample 3) separately prepared were weighed out in an amount of 0.5 g, respectively, each was placed in a petri dish, and stored (retained) under a high humidity condition of 95% and a temperature of 25° C. After retention times of 1, 3, 6 and 24 hours, the weight of each sample was measured. The measuring conditions were as follows.
Apparatus name: HIFLEX TH401 supplied from ETAC.
Storing condition: 25° C., humidity of 95%.
Sample container: diameter of 25 cm, glass petri dish.

The nature of series [4]: Sweetness intensity of crystals of free (2R,4R)-monatin compared with an aqueous solution of 5% sucrose. As to the method:
It was identified that the sweetness intensity (degree of sweetness) of the present crystals of free (2R,4R)-monatin is about 2500 times that of an aqueous solution of 5% sucrose. This sweetness intensity is nearly equivalent to the sweetness intensity (about 2700 times) of the crystals of the sodium salt of (2R,4R)-monatin evaluated by the inventors in Amino, Y. et al., WO 2003045914 A1.
1.05 mg of crystals of free (2R,4R)-monatin described in the above Comparative Example 1 were dissolved in 20 ml of ion-exchanged water. A solution was prepared by diluting this solution 2.5 times. The sweetness of this aqueous solution of the free compound of (2R,4R)-monatin was compared with that of an aqueous solution of 5% sucrose separately prepared.

Where two headings read alike, the source gives them in different places.

On to `N[C@H](C[C@](O)(Cc1c[nH]c2ccccc12)C(=O)O)C(=O)O` [(2R,4R)-monatin substance, (2R,4R)-monatin], for which the figures for the degree of sweetness in series [1], in series [1] (listed as (2R,4R)) and in series [1] (listed as crystals of the sodium salt of (2R,4R)-monatin) were 2700 times, 2700 times and “about 2700 times”, respectively.

Turning to `N[C@H](C[C@@](O)(Cc1c[nH]c2ccccc12)C(=O)O)C(=O)O` [(2R,4S)-monatin substance, (2R,4S)-monatin], in series [1], the degree of sweetness is given as 1300 times.

Take `N[C@@H](C[C@](O)(Cc1c[nH]c2ccccc12)C(=O)O)C(=O)O` [(2S,4R)-monatin substance, (2S,4R)-monatin]: in series [1], the degree of sweetness is 300 times.

As to `NC(CC(O)(Cc1c[nH]c2ccccc12)C(=O)O)C(=O)O` [(2S,4S)-monatin substance, (2S,4S)-monatin], the degree of sweetness in series [1] is 50 times.

On to `N[C@@H](C[C@@](O)(Cc1c[nH]c2ccccc12)C(=O)O)C(=O)O` [(2S,4S)-monatin, (2S,4S)-2-amino-4-carboxy-4-hydroxy-5-(3-indolyl)-pentanoic acid], for which the sweetness intensity in series [2] (times that of sucrose, Vleggaar et al.) was 800 to 1400 times.

As to `N[C@H](CC(O)(Cc1c[nH]c2ccccc12)C(=O)O)C(=O)O` (stereo partly drawn) [Sample 1, (2R,4R)-monatin], the water absorption entry in series [3] (listed as crystal of free (2R,4R)-monatin) is listed as “scarcely absorbs water”; in series [3] (listed as crystals of free (2R,4R)-monatin), “no water absorption”. Further, the “Increase percentage (absorbed water amount)” value (“Increase percentage” for short) in series [3] (retention time 0 hrs), in series [3] (retention time 1 hr), in series [3] (retention time 3 hrs), in series [3] (retention time 6 hrs) and in series [3] (retention time 24 hrs) was 0.00% throughout. Also, the Weight in series [3] (retention time 0 hrs) was 0.5000 g; in series [3] (retention time 1 hr), 0.5000 g; in series [3] (retention time 3 hrs) it was 0.4996 g; in series [3] (retention time 6 hrs) it was 0.5001 g; in series [3] (retention time 24 hrs), 0.4997 g. Also, the “sweetness compared with aqueous solution of 5% sucrose” value in series [4] (1.05 mg in 20 ml ion-exchanged water, diluted 2.5 times) is “nearly equivalent sweetness intensity”. Further, the “sweetness intensity (degree of sweetness)” value in series [4] (relative to an aqueous solution of 5% sucrose) is given as “about 2500 times”.

Regarding `N[C@@H](C[C@](O)(Cc1c[nH]c2ccccc12)C(=O)O)C(=O)O` [synthetic (2S,4R)-monatin, (2S,4R)-monatin], the entries for the “intensity of sweet taste” value in series [2] and in series [2] (listed as hydrochloride salt of (2S,4R)-monatin) were “slightly sweet taste” and “almost no sweetness”, respectively.

Turning to `NC(CC(O)(Cc1c[nH]c2ccccc12)C(=O)O)C(=O)O` [synthetic (2S,4S)-monatin, (2S,4S)-monatin], the “intensity of sweet taste” value in series [2] was “equivalent to that of the natural specimen of monatin”.

On to “potassium salt of (2R,4R)-monatin [Sample 3]”, for which the absorbed water in series [3] was found to be 7.3 wt. %. Also, the “Increase percentage” value in series [3] (retention time 0 hrs) stood at 0.00%; in series [3] (retention time 1 hr) it was 8.82%; in series [3] (retention time 3 hrs) it was 8.58%; in series [3] (retention time 6 hrs) it was 7.30%; in series [3] (retention time 24 hrs), 7.30%. Besides, the Weight in series [3] (retention time 0 hrs) is 0.5014 g; in series [3] (retention time 1 hr), 0.5456 g; in series [3] (retention time 3 hrs) it was 0.5444 g; in series [3] (retention time 6 hrs) it was 0.5383 g; in series [3] (retention time 24 hrs), 0.5380 g.

In series [3], “potassium salt of (2R,4R)-monatin monohydrate [Sample 2]” registered an absorbed water of 5.4 wt. %. The “Increase percentage” value is reported as 0.00% in series [3] (retention time 0 hrs); 1.08% in series [3] (retention time 1 hr); 3.71% in series [3] (retention time 3 hrs); 4.89% in series [3] (retention time 6 hrs); 5.39% in series [3] (retention time 24 hrs). The Weight in series [3] (retention time 0 hrs) stood at 0.5007 g; in series [3] (retention time 1 hr), 0.5061 g; in series [3] (retention time 3 hrs), 0.5193 g; in series [3] (retention time 6 hrs) it was 0.5252 g; in series [3] (retention time 24 hrs), 0.5277 g.

The values are drawn from patent US7935377B2, “Crystals of free (2R, 4R)-monatin and use thereof” (Ajinomoto Co., Inc., priority 2004, dated 2011).
